Results as given in EP4592286A1, “MACROCYCLIC NITROGEN-CONTAINING CROWN ETHER COMPOUND AND USE THEREOF AS PROTEIN KINASE INHIBITOR” (Artivila Biopharma, priority 2022, dated 2024).

Tests used:
Type in all cases: biochemical
[1] = target: LRRK2 (Homo sapiens, UniProt Q5S007); test: experiment of inhibiting kinase activity, LRRK2; details: for inhibition at 0.1 µM: at 100 nM; for inhibition at 0.1 µM / inhibition at 0.01 µM: read-out: inhibition rate LRRK2; for IC50: kinase activity assay, Table 3; for inhibition at 0.01 µM: at 10 nM
Description: (§1) The inhibition rates of tested compounds on JAK1, JAK2, JAK3, TYK2, CDK7, CDK9, EGFR (T790M) and LRRK2 kinases were measured. The test concentrations of the compounds were 10 nM and 100 nM, and the detection was performed by replicate wells. Alternatively, compounds were 3-fold serial diluted from 10 µM for 10 concentrations in replicate wells.

[2] = target: JAK1 (Homo sapiens, UniProt P23458); test: experiment of inhibiting kinase activity (Caliper mobility shift assay), JAK1; details: for inhibition at 0.1 µM: at 100 nM, read-out: inhibition rate JAK1; for IC50: kinase activity assay, Table 3
Description: as §1
(§2) The inhibitory effects of the compounds on JAK1, JAK2, JAK3, CDK7 and CDK9 kinases were detected by the method of Caliper mobility shift assay. 250 nL of the compound at 100-fold final concentration was transferred to a destination plate 384-well-plate by using a liquid handler Echo 550. A kinase solution at 2.5-fold final concentration was prepared with 1×kinase buffer. 10 µL of the kinase solution with 2.5-fold final concentration was added to compound wells and positive control wells; and 10 µL of 1×kinase buffer was added to negative control wells. The mixture was centrifuged at 1000 rpm for 30 seconds and then incubated at room temperature for 10 minutes. A mixed solution of ATP and kinase substrate at 5/3-fold final concentration was prepared with 1×kinase buffer, and 15 µL of the mixed solution of ATP and substrate at 5/3-fold final concentration was added to start the reaction. The 384-well plate was centrifuged at 1000 rpm for 30 seconds, shaked and mixed evenly, then incubated at room temperature for a corresponding time. 30 µL of stop solution was added to stop the kinase reaction, the mixture was centrifuged at 1000 rpm for 30 seconds, and shaked and mixed evenly. The conversion rate was read by Caliper EZ Reader. The conversion inhibition rate%=(average positive control conversion rate%-sample conversion rate%)/(average positive control conversion rate%-average negative control conversion rate%). Where negative control wells represent the conversion readings of the background well of kinase buffer; and positive control wells represent the conversion readings of wells without compound inhibition. With the log value of concentration as the x axis and the percentage inhibition rate as the y axis, the dose-response curve was fitted by the log (inhibitor) vs. response-variable slope of the analyzing softwar GraphPad Prism 5, and the IC50 values of each compound on enzyme activity were obtained. Calculation formula is as follows: y=Bottom+(Top-Bottom)/(1+10^((LogIC50-x)×hillslope)), where x is logarithm of inhibitor concentration; and Y is % inhibition rate.

[3] = target: T1, JAK3 (Homo sapiens, UniProt P52333); test: experiment of inhibiting kinase activity (Caliper mobility shift assay), JAK3; details: for IC50: kinase activity assay, Table 3; for inhibition at 0.1 µM: at 100 nM; for inhibition at 0.1 µM / inhibition at 0.01 µM: read-out: inhibition rate JAK3; for inhibition at 0.01 µM: at 10 nM
T1 sequence (P52333 1-1124): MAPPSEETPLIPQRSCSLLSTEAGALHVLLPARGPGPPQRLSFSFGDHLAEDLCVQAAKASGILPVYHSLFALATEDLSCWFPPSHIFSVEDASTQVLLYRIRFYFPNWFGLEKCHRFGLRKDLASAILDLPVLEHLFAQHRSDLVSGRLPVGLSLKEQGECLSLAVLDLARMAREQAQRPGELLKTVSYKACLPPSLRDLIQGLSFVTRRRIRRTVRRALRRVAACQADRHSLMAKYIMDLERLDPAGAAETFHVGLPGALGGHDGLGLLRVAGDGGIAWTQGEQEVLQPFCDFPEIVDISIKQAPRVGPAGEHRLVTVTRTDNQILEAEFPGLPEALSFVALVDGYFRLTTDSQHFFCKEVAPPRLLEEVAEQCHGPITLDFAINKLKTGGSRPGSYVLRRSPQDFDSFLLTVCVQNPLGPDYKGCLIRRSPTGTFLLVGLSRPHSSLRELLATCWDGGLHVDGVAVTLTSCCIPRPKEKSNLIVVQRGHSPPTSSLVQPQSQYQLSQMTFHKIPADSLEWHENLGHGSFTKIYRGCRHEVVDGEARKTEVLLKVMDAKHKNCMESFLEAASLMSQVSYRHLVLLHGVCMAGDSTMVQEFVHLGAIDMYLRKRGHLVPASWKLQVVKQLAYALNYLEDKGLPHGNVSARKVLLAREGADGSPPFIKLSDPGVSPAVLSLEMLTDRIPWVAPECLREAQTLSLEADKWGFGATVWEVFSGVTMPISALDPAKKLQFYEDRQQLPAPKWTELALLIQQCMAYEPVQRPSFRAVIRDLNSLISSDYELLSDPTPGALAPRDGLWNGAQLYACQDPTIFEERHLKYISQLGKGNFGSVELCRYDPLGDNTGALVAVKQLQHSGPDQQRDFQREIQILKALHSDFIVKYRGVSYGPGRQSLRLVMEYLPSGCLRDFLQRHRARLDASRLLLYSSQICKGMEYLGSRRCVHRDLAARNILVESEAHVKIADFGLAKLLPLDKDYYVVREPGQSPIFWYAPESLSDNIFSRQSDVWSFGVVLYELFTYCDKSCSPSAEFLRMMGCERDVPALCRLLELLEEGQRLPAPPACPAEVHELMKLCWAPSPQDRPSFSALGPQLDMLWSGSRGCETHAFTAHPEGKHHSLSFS
Procedure, shortened: (§3)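 Kinase preincubated 10 min at room temperature with compound, then reaction started with ATP plus substrate; substrate conversion read by Caliper mobility shift after stop solution. Compounds tested at 10 and 100 nM or as 10-point 3-fold dilutions from 10 µM; IC50 from variable-slope fit of % inhibition.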

[4] = target: TYK2 (Homo sapiens, UniProt P29597); test: experiment of inhibiting kinase activity, TYK2; details: read-out: inhibition rate TYK2; for inhibition at 0.01 µM: at 10 nM; for inhibition at 0.1 µM: at 100 nM
Description: as §1

[5] = target: JAK2 (Homo sapiens, UniProt O60674); test: experiment of inhibiting kinase activity (Caliper mobility shift assay), JAK2; details: for inhibition at 0.01 µM: at 10 nM; for inhibition at 0.01 µM / inhibition at 0.1 µM: read-out: inhibition rate JAK2; for inhibition at 0.1 µM: at 100 nM; for IC50: kinase activity assay, Table 3
Procedure, shortened: as §3

[6] = target: CDK9 (Homo sapiens, UniProt P50750); test: experiment of inhibiting kinase activity (Caliper mobility shift assay), CDK9; details: for inhibition at 0.1 µM: at 100 nM; for inhibition at 0.1 µM / inhibition at 0.01 µM: read-out: inhibition rate CDK9; for inhibition at 0.01 µM: at 10 nM
Description: as §1, §2

[7] = target: CDK7 (Homo sapiens, UniProt P50613); test: experiment of inhibiting kinase activity (Caliper mobility shift assay), CDK7; details: for inhibition at 0.1 µM: at 100 nM, read-out: inhibition rate CDK7
Description: as §1, §2

Sequence of CDK7 (P50613 whole entry, species assumed): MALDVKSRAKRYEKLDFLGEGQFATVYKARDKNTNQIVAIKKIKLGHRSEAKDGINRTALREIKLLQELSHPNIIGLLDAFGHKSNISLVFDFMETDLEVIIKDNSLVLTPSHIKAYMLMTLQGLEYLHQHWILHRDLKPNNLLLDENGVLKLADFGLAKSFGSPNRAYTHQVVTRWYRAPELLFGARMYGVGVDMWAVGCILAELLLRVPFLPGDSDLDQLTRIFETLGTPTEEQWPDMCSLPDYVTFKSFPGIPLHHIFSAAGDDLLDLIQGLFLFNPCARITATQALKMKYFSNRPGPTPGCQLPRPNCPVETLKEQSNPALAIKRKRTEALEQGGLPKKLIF
Sequence of CDK7 (P51946 whole entry partner, species assumed): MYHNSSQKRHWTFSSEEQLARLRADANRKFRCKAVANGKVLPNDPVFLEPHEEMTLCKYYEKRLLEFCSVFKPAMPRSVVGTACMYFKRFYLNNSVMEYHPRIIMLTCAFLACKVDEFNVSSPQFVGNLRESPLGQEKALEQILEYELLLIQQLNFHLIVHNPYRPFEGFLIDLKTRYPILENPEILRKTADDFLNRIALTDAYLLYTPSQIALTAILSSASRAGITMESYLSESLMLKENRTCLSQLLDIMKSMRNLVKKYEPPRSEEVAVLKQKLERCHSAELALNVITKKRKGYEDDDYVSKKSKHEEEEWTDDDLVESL
Sequence of CDK7 (P51948 whole entry partner, species assumed): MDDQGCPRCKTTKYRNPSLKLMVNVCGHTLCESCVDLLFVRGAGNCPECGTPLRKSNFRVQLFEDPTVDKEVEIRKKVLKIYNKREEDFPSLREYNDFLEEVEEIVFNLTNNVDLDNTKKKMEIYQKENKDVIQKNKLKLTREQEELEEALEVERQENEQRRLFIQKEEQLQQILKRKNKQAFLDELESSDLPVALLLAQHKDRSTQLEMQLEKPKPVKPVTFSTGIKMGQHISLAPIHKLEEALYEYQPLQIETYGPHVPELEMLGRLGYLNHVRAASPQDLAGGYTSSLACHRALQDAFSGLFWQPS
Sequence of LRRK2 (Q5S007 whole entry): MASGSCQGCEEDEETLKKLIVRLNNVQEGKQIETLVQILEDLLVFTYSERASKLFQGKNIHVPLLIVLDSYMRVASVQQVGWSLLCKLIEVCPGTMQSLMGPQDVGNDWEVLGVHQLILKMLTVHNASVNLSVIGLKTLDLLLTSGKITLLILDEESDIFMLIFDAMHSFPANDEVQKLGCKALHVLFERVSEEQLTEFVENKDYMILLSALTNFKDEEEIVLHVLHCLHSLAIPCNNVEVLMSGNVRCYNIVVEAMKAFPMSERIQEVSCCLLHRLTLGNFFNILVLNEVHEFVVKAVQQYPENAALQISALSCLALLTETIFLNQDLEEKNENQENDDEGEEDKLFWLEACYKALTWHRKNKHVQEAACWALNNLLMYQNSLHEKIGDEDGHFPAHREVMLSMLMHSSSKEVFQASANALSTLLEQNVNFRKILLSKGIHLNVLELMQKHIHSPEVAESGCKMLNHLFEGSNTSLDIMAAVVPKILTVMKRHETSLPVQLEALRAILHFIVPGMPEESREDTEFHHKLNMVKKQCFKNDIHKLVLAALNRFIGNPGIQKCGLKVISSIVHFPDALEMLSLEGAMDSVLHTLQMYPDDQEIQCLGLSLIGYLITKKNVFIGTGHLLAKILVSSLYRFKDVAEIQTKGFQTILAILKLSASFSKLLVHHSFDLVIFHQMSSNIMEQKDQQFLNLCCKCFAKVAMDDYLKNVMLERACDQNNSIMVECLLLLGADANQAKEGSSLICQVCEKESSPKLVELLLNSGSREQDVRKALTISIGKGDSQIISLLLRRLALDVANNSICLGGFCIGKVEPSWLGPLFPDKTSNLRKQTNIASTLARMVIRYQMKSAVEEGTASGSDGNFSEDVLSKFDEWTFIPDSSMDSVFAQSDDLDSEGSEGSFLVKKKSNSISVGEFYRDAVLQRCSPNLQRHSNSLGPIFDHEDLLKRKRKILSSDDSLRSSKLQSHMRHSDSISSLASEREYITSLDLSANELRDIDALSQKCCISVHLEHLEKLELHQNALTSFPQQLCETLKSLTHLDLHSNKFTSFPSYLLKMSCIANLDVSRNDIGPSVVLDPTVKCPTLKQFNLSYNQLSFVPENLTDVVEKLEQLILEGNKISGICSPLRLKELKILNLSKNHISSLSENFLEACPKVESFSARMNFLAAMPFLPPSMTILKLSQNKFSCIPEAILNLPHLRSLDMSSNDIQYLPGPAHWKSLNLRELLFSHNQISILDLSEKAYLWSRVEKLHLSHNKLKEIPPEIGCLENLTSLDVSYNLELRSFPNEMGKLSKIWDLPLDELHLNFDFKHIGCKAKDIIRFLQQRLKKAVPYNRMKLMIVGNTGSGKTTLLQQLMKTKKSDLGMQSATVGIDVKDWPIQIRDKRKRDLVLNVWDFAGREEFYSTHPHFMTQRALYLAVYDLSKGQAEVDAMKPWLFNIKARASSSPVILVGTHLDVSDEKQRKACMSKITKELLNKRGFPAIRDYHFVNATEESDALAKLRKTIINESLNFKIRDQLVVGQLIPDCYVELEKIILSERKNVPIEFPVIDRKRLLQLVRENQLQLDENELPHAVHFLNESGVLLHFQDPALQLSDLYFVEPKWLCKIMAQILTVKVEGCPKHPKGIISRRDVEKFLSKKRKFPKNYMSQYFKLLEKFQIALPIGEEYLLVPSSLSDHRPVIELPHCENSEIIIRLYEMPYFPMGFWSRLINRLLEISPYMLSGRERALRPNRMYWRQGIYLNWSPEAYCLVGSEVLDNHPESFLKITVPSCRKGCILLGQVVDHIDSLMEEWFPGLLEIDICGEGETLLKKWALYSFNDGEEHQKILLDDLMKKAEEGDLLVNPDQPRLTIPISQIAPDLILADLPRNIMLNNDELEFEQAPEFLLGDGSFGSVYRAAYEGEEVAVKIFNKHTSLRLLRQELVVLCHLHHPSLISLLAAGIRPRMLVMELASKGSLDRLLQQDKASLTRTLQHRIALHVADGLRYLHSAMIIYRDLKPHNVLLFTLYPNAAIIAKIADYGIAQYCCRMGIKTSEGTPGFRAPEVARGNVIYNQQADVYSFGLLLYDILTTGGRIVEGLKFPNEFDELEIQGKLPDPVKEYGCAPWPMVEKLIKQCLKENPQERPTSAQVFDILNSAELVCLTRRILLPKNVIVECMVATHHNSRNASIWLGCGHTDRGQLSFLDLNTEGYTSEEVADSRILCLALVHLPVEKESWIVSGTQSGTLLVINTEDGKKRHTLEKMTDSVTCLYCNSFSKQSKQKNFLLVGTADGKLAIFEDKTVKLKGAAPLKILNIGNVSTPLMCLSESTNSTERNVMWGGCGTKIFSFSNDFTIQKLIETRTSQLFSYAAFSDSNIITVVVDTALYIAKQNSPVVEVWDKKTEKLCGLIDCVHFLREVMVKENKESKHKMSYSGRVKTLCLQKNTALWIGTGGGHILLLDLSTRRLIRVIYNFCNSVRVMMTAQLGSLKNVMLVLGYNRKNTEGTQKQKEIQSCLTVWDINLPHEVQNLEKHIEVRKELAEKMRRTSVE
Sequence of TYK2 (P29597 whole entry): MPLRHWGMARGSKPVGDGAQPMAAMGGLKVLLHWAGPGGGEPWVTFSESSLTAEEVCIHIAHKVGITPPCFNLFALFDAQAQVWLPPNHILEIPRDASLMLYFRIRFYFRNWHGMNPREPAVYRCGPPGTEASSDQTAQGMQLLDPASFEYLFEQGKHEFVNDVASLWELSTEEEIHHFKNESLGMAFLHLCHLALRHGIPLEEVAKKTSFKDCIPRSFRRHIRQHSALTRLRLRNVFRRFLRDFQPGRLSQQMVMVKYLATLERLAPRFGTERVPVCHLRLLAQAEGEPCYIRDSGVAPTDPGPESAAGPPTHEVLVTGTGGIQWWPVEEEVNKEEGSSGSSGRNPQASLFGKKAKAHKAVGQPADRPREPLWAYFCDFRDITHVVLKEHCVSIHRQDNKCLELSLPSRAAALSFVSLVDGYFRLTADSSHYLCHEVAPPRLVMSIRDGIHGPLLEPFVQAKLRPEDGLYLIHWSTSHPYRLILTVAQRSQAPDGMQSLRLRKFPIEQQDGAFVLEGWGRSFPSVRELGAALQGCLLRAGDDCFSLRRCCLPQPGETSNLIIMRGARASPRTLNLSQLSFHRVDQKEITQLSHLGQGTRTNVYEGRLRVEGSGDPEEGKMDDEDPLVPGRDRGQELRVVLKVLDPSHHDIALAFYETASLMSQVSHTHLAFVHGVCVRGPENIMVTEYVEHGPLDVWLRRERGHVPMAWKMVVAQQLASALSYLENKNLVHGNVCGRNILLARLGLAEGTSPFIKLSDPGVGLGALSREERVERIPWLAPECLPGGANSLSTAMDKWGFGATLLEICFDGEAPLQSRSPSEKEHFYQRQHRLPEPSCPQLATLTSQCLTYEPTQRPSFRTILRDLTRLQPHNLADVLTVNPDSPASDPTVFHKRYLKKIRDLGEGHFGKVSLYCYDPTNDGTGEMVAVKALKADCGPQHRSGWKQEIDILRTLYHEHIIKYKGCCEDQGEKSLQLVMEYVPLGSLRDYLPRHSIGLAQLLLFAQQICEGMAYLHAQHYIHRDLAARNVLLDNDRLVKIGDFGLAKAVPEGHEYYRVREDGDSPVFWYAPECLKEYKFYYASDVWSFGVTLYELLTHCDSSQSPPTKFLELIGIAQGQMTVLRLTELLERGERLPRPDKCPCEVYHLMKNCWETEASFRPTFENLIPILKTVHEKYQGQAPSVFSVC

inhibition at 0.1 µM [1] [%]	IC50 [1] [nM]	inhibition at 0.1 µM [2] [%]	IC50 [2] [nM]	IC50 [3] [nM]	inhibition at 0.01 µM [4] [%]	inhibition at 0.1 µM [4] [%]	inhibition at 0.01 µM [5] [%]	inhibition at 0.1 µM [5] [%]	IC50 [5] [nM]	inhibition at 0.1 µM [6] [%]	inhibition at 0.1 µM [3] [%]	inhibition at 0.1 µM [7] [%]	inhibition at 0.01 µM [1] [%]	inhibition at 0.01 µM [3] [%]	inhibition at 0.01 µM [6] [%]	IC50 ([7]; kinase activity assay, Table 3) [nM]	IC50 ([6]; kinase activity assay, Table 3) [nM]	SMILES
40 to 79	50 to 200	40 to 79	< 50	< 50	25 to 39	> 80	40 to 79	> 80	< 50	40 to 79								CN1CCOc2ccc(Nc3ncc(F)c(-c4ccc(C(=O)NCC#N)cc4)n3)cc2OCC1 [Example 15, N-(Cyanomethyl)-4-(5-fluoro-2-((4-methyl-3,4,5,6-tetrahydro-2H-benzo[b][1,4,7]dioxazolin-9-yl)amino)pyrimidin-4-yl)benzamide]
40 to 79						25 to 39		> 80			40 to 79	40 to 79						CN1CCOCCOc2cc(Nc3nc(Nc4cccc(S(=O)(=O)NC(C)(C)C)c4)c4cc[nH]c4n3)ccc2OCC1 [Example 20, N-(tert-butyl)-3-((2-((7-methyl-2,3,6,7,8,9-hexahydro-5H-benzo[b][1,4,7]trioxa[10]azacyclododecan-13-yl)amino)-7H-pyrrolo[2,3-d]pyrimidin-4-yl)amino)benzenesulfonamide]
40 to 79						25 to 39		> 80			40 to 79	40 to 79						CN1CCOCCOc2cc(Nc3nc(-c4cn(C)c5ccccc45)c4cc[nH]c4n3)ccc2OCC1 [Example 23, 7-methyl-N-(4-(1-methyl-1H-indol-3-yl)-7H-pyrrolo[2,3-d]pyrimidin-2-yl)-2,3,6,7,8,9-hexahydro-5H-benzo[b][1,4,7]trioxa[10]azacyclododecan-13-amine]
40 to 79	50 to 200	40 to 79		< 50	40 to 79	> 80	40 to 79	> 80	< 50		40 to 79	40 to 79						CN1CCOc2ccc(Nc3ncc(F)c(-c4cnn(C(CC#N)C5CCCC5)c4)n3)cc2OCC1 (stereo not shown) [Example 25]
> 80						40 to 79	40 to 79	> 80		40 to 79	> 80	40 to 79	40 to 79	40 to 79	25 to 39			Cc1nc2c(F)cc(-c3nc(Nc4ccc5c(c4)OCCOCCN(C)CCO5)nc4[nH]ccc34)cc2n1C(C)C [Example 31, N-(4-(4-fluoro-1-isopropyl-2-methyl-1H-benzo[d]imidazol-6-yl)-7H-pyrrolo[2,3-d]pyrimidin-2-yl)-7-methyl-2,3,6,7,8,9-hexahydro-5H-benzo[b][1,4,7]trioxa[10] azacyclododecan-13-amine]
> 80	< 50				25 to 39	40 to 79	40 to 79	> 80		25 to 39	> 80	40 to 79	> 80	> 80				CN1CCOCCOc2cc(Nc3nc(Nc4ccccc4P(C)(C)=O)c4cc[nH]c4n3)ccc2OCC1 [Example 32, dimethyl(2-((2-((7-methyl-2,3,6,7,8,9-hexahydro-5H-benzo[b][1,4,7]trioxa[10]azacyclododecan-13-yl)amino)-7H-pyrrolo[2,3-d]pyrimidin-4-yl)amino)phenyl)phosphine oxide]
> 80	< 50	40 to 79	50 to 200	< 50		40 to 79	40 to 79	> 80	< 50		> 80	40 to 79	> 80	25 to 39		< 50		CC(C)S(=O)(=O)c1ccccc1Nc1nc(Nc2ccc3c(c2)OCCN(C)CCO3)nc2[nH]ccc12 [Example 35, N^4-(2-(isopropylsulfonyl)phenyl)-N^2-(4-methyl-3,4,5,6-tetrahydro-2H-benzo[b][1,4, 7]dioxazolin-9-yl)-7H-pyrrolo[2,3-d]pyrimidin-2,4-diamine]
25 to 39		40 to 79		< 50	40 to 79	> 80	40 to 79	> 80	< 50		> 80	25 to 39		40 to 79				CCS(=O)(=O)N1CC(CC#N)(n2cc(-c3nc(Nc4ccc5c(c4)OCCN(C)CCO5)ncc3F)cn2)C1 [Example 37, 2-(1-(ethylsulfonyl)-3-(4-(5-fluoro-2-((4-methyl-3,4,5,6-tetrahydro-2H-benzo[b] [1,4,7]dioxazolin-9-yl)amino)pyrimidin-4-yl)-1H-pyrazol-1-yl)azetidin-3-yl)acetonitrile]
	< 50									> 80								CN1CCOc2ccc(Nc3nc(NCCP(C)(C)=O)c4cc[nH]c4n3)cc2OCC1 [Example 85, dimethyl(2-((2-((4-methyl-3,4,5,6-tetrahydro-2H-benzo[b][1,4,7]dioxazolin-9-yl)amino)-7H-pyrrolo[2,3-d]pyrimidin-4-yl)amino)ethyl)phosphine oxide]
															40 to 79		< 50	COc1ccc(F)cc1-c1nc(Nc2ccc3c(c2)OCCOCCN(C)CCO3)ncc1F [Example 115, N-(5-fluoro-4-(5-fluoro-2-methoxyphenyl)pyrimidin-2-yl)-7-methyl-2,3,6,7,8,9-hexahydro-5H-benzo[b][1,4,7]trioxa[10]azacyclododecan-13-amine]
